Assay results: patent US11434242B2, “Dopamine-b-hydroxylase inhibitors” (BIAL-PORTELA & Cª, S.A., priority 2017, dated 2022)

Molecular target: T1, Dopamine beta hydroxylase (Homo sapiens, UniProt P09172)
T1 construct: 125 μl of plasma; tissue Instituto Português do Sangue Transplantação; host or cells: human plasma from healthy donors
T1 sequence (P09172 40-617 limits assumed): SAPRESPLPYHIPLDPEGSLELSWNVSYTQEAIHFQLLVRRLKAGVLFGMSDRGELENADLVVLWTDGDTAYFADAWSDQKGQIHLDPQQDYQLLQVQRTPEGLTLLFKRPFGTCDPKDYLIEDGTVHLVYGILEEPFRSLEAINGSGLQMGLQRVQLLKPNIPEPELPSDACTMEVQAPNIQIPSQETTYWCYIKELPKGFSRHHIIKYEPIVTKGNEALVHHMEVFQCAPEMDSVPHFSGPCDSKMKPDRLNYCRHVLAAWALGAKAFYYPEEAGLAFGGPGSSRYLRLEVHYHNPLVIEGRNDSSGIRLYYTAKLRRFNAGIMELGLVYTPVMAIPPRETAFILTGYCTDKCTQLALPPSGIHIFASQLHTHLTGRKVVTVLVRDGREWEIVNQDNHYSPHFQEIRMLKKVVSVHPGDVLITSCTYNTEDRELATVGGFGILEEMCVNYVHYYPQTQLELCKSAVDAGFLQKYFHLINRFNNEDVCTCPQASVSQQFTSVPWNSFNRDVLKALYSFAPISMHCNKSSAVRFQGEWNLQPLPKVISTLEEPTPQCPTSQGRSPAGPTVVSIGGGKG
Assay: Dopamine beta hydroxylase activity in human plasma
Format: biochemical
Conditions: for Plasma (0.1 μM), activity in % of control: inhibitor 0.1 μM; for Plasma (1 μM), activity in % of control: inhibitor 1 μM; for Plasma (0.01 μM), activity in % of control: inhibitor 0.01 μM
In short: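 Healthy-donor human plasma pre-incubated 10 min at 37° C with compound at final 10, 100 or 1000 nM in pH 5.0 acetate buffer with ascorbate, fumarate, pargyline, N-ethylmaleimide, catalase and copper sulfate. Tyramine substrate then added for 45 min; octopamine formed was isolated by SCX cartridge, periodate-converted and read at 330 nm; activity given as % control.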

SMILES	Plasma (0.1 μM), activity in % of control	Plasma (1 μM), activity in % of control	Plasma (0.01 μM), activity in % of control
F.Fc1ccc(Br)cc1[C@]12C[C@H]1c1c(CCNc3ccccn3)[nH]c(=S)n1C2 [Example 192, (5aS,6aR)-5a-(5-bromo-2-fluorophenyl)-1-(2-(pyridin-2-ylamino)ethyl)-5,5a,6,6a-tetrahydrocyclopropa[3,4]pyrrolo[1,2-c]imidazole-3(2H)-thione hydrofluoride]	12.1 % of control	–	73.4 % of control
Cn1c(CC(=O)N2CCC[C@H]2CF)c2n(c1=S)C[C@@H](c1c(F)ccc(F)c1F)C2 [Example 296, 1-((S)-2-(fluoromethyl)pyrrolidin-1-yl)-2-((R)-2-methyl-3-thioxo-6-(2,3,6-trifluorophenyl)-2,5,6,7-tetrahydro-3H-pyrrolo[1,2-c]imidazol-1-yl)ethan-1-one]	74.5 % of control	–	89.2 % of control
CN(C(=O)Cc1c2n(c(=S)n1C)C[C@@H](c1c(F)c(F)cc(F)c1F)C2)C1COC1 [Example 398, (R)—N-methyl-2-(2-methyl-6-(2,3,5,6-tetrafluorophenyl)-3-thioxo-2,5,6,7-tetrahydro-3H-pyrrolo[1,2-c]imidazol-1-yl)-N-(oxetan-3-yl)acetamide]	23.0 % of control	–	94.3 % of control
Cl.Cn1c(CC(=O)NCc2cnccn2)c2n(c1=S)C[C@@]1(c3cc(Cl)ccc3F)C[C@@H]21 [Example 335, 2-((5aS,6aR)-5a-(5-chloro-2-fluorophenyl)-2-methyl-3-thioxo-2,3,5,5a,6,6a-hexahydrocyclopropa[3,4]pyrrolo[1,2-c]imidazol-1-yl)-N-(pyrazin-2-ylmethyl)acetamide Hydrochloride]	8.7 % of control	–	44.9 % of control
Fc1ccc(Br)cc1[C@]12C[C@H]1c1c(CCNCC(F)(F)F)[nH]c(=S)n1C2 [Example 180, (5aS,6aR)-5a-(5-bromo-2-fluorophenyl)-1-(2-((2,2,2-trifluoroethyl)amino)ethyl)-5,5a,6,6a-tetrahydrocyclopropa[3,4]pyrrolo[1,2-c]imidazole-3(2H)-thione]	22.3 % of control	–	99.2 % of control
CN(C(=O)Cc1c2n(c(=S)n1C)C[C@@]1(c3c(F)ccc(Cl)c3F)C[C@@H]21)[C@@H]1CCOC1 [Example 467, 2-((5aS,6aR)-5a-(3-chloro-2,6-difluorophenyl)-2-methyl-3-thioxo-2,3,5,5a,6,6a-hexahydrocyclopropa[3,4]pyrrolo[1,2-c]imidazol-1-yl)-N-methyl-N—((R)-tetrahydrofuran-3-yl)acetamide]	4.0 % of control	–	27.9 % of control
CNC(=O)Cc1[nH]c(=S)n2c1[C@@H]1C[C@]1(c1cc(F)cc(Cl)c1)C2 [Example 68, 2-((5aS,6aR)-5a-(3-chloro-5-fluorophenyl)-3-thioxo-2,3,5,5a,6,6a-hexahydrocyclopropa[3,4]pyrrolo[1,2-c]imidazol-1-yl)-N-methylacetamide]	55.6 % of control	13.5 % of control	–

Results, then the molecule that gave them:

Plasma (0.1 μM), activity in % of control	Plasma (1 μM), activity in % of control	Plasma (0.01 μM), activity in % of control	SMILES
57.0 % of control	11.9 % of control	–	CN(C)CCCNC(=O)Cc1[nH]c(=S)n2c1C[C@H](c1c(F)c(F)cc(F)c1F)C2.Cl [Example 71, (R)—N-(3-(dimethylamino)propyl)-2-(6-(2,3,5,6-tetrafluorophenyl)-3-thioxo-2,5,6,7-tetrahydro-3H-pyrrolo[1,2-c]imidazol-1-yl)acetamide Hydrochloride]
92.8 % of control	45.6 % of control	–	O=C(O)Cc1[nH]c(=S)n2c1C[C@H](c1cc(F)ccc1F)C2 [Example 14, (R)-2-(6-(2,5-difluorophenyl)-3-thioxo-2,5,6,7-tetrahydro-3H-pyrrolo[1,2-c]imidazol-1-yl)acetic Acid]
66.0 % of control	11.4 % of control	–	O=C(O)Cc1[nH]c(=S)n2c1C[C@H](c1c(F)c(F)cc(F)c1F)C2 [Example 15, (R)-2-(6-(2,3,5,6-tetrafluorophenyl)-3-thioxo-2,5,6,7-tetrahydro-3H-pyrrolo[1,2-c]imidazol-1-yl)acetic Acid]
99.1 % of control	47.9 % of control	–	CCOC(=O)Cc1[nH]c(=S)n2c1C[C@H](c1cc(F)ccc1F)C2 [Example 61, Ethyl (R)-2-(6-(2,5-difluorophenyl)-3-thioxo-2,5,6,7-tetrahydro-3H-pyrrolo[1,2-c]imidazol-1-yl)acetate]
22.7 % of control	0.5 % of control	–	CCCNC(=O)Cc1[nH]c(=S)n2c1C[C@@H](c1c(F)ccc(Br)c1F)C2 [Example 97, (S)-2-(6-(3-bromo-2,6-difluorophenyl)-3-thioxo-2,5,6,7-tetrahydro-3H-pyrrolo[1,2-c]imidazol-1-yl)-N-propylacetamide]
10.4 % of control	–	56.6 % of control	CN(C)C(=O)C1CCN(C(=O)Cc2c3n(c(=S)n2C)C[C@H](c2c(F)ccc(Br)c2F)C3)C1 (stereo partly drawn) [Example 453, 1-(2-((S)-6-(3-bromo-2,6-difluorophenyl)-2-methyl-3-thioxo-2,5,6,7-tetrahydro-3H-pyrrolo[1,2-c]imidazol-1-yl)acetyl)-N,N-dimethylpyrrolidine-3-carboxamide]
56.0 % of control	–	85.3 % of control	Cn1c(CCC(=O)N2CCOCC2)c2n(c1=S)C[C@@H](c1c(F)ccc(F)c1F)C2 [Example 266, (R)-3-(2-methyl-3-thioxo-6-(2,3,6-trifluorophenyl)-2,5,6,7-tetrahydro-3H-pyrrolo[1,2-c]imidazol-1-yl)-1-morpholinopropan-1-one]
60.7 % of control	9.8 % of control	–	O=C(Cc1[nH]c(=S)n2c1C[C@H](c1c(F)c(F)cc(F)c1F)C2)NC1CCC1 [Example 80, (R)—N-cyclobutyl-2-(6-(2,3,5,6-tetrafluorophenyl)-3-thioxo-2,5,6,7-tetrahydro-3H-pyrrolo[1,2-c]imidazol-1-yl)acetamide]
26.2 % of control	2.1 % of control	–	O=C(Cc1[nH]c(=S)n2c1C[C@@H](c1c(F)ccc(Br)c1F)C2)N1CCC[C@H]1CO [Example 100, 2-((S)-6-(3-bromo-2,6-difluorophenyl)-3-thioxo-2,5,6,7-tetrahydro-3H-pyrrolo[1,2-c]imidazol-1-yl)-1-((S)-2-(hydroxymethyl)pyrrolidin-1-yl)ethan-1-one]
1.2 % of control	–	11.4 % of control	Cn1c(CC(=O)N2CCS(=O)(=O)CC2)c2n(c1=S)C[C@H](c1c(F)ccc(Br)c1F)C2 [Example 235, (S)-2-(6-(3-bromo-2,6-difluorophenyl)-2-methyl-3-thioxo-2,5,6,7-tetrahydro-3H-pyrrolo[1,2-c]imidazol-1-yl)-1-(1,1-dioxidothiomorpholino)ethan-1-one]
